Marks after values point to notes of the source that are not given here.
How the values were obtained:
Format in all cases: in vivo
[1] = system: Puccinia recondita f. sp. tritici; test: Test F: preventive spray on wheat seedlings, wheat leaf rust, visual disease rating
From the text: (§1) General protocol for preparing test solutions for Tests AG: the test compounds were first dissolved in acetone in an amount equal to 3% of the final volume and then suspended at the desired concentration (in ppm) in acetone and purified water (50/50 mix by volume) containing the surfactant PEG400 (polyhydric alcohol esters). The resulting test suspensions were then used in Tests AG. Compounds were sprayed at a concentration of 250 ppm or other indicated rate to the point of run-off on the test plants. The test solution was sprayed to the point of run-off on wheat seedlings. The following day the seedlings were inoculated with a spore suspension of Puccinia recondita f. sp. tritici; […] A dash (-) indicates no test results.

Phytophthora infestans = test: whole plant or invertebrate; details: tomato seedlings
[2] = system: Erysiphe graminis f. sp. tritici; test: Test G: preventive spray on wheat seedlings, wheat powdery mildew, visual disease rating
From the text: as §1, with “seedlings.” for “seedlings. The following day the seedlings were inoculated with a spore suspension of Puccinia recondita f. sp. tritici;”

Botrytis cinerea = test: Test C: preventive spray on tomato seedlings, gray mold, visual disease rating
From the text: as §1, with “tomato” for “wheat”, “seedlings.” for “seedlings. The following day the seedlings were inoculated with a spore suspension of Puccinia recondita f. sp. tritici;”

Zymoseptoria tritici = test: Test E: preventive spray on wheat seedlings, wheat leaf blotch, visual disease rating
From the text: as §1, with “seedlings.” for “seedlings. The following day the seedlings were inoculated with a spore suspension of Puccinia recondita f. sp. tritici;”

Phakopsora pachyrhizi = test: Test A: preventive spray on soybean seedlings, Asian soybean rust, visual disease rating; details: 250 ppm, 100 = 100% disease control, 0 = no control
[3] = 250 ppm, 100 = 100% disease control, 0 = no control

SMILES	Test F disease control rating ([1]; 200 ppm) [%]	Test D disease control rating (Phytophthora infestans; 200 ppm)	Test G disease control rating ([2]; 200 ppm) [%]	Test C disease control rating (Botrytis cinerea; 200 ppm) [%]	Test A disease control rating (Phakopsora pachyrhizi) [%]	Test F disease control rating [1, 3] [%]	Test D disease control rating (Phytophthora infestans; [3]) [%]	Test G disease control rating [2, 3] [%]	Test C disease control rating (Botrytis cinerea; [3]) [%]	Test E disease control rating (Zymoseptoria tritici; [3]) [%]	further results
Cn1ncc(O)c(C(=O)Nc2ccc3c(c2)OC(F)(F)O3)c1=O [Compound 1]	98	0%	40	0							
Cc1nn(C)c(=O)c(C(=O)Nc2ccc(OC(F)(F)F)cc2)c1O [Compound 3]	0	0%	37	0							Test E disease control rating (Zymoseptoria tritici; 200 ppm): 0%
CCCn1ncc(O)c(C(=O)Nc2ccc(OC(F)(F)F)cc2)c1=O [Compound 4]	95	99%	97	0							Test E disease control rating (Zymoseptoria tritici; 200 ppm): 0%
CCn1ncc(O)c(C(=O)Nc2ccc(OC(F)(F)F)cc2)c1=O [Compound 5]	84	50%	32	10							Test E disease control rating (Zymoseptoria tritici; 200 ppm): 0%
COc1cnn(C)c(=O)c1C(=O)Nc1ccc(Cl)cc1 [Compound 8]	0	0%	0	0							
Cn1ncc(O)c(C(=O)Nc2ccc(Cl)cc2)c1=O [Compound 9]	99	0%	96	0							
Cn1ncc(O)c(C(=O)Nc2ccccc2Cl)c1=O [Compound 10]	97	0%	0	99							
Cn1ncc(O)c(C(=O)Nc2cccc(Cl)c2)c1=O [Compound 11]	95	0%	31	48							
CCn1ncc(O)c(C(=O)Nc2ccc(Cl)nc2)c1=O [Compound 12]	91	0%	93								
O=C(Nc1ccc(Cl)nc1)c1c(O)cnn(-c2ccccc2)c1=O [Compound 14]	98	0%	0	90							
Cn1ncc(O)c(C(=O)Nc2cccc(C#N)c2)c1=O [Compound 15]	91	79%	0	16							
Cc1cc(Cl)ccc1NC(=O)c1c(O)cnn(C)c1=O [Compound 16]	99	91%	45	0							
Cn1ncc(O)c(C(=O)Nc2ccc(Cl)c(Cl)c2)c1=O [Compound 17]	99	57%	0	0							
Cn1ncc(O)c(C(=O)Nc2ccc(Cl)c(C(F)(F)F)c2)c1=O [Compound 18]	83	0%	46	0							
Cn1ncc(O)c(C(=O)Nc2cccc3cccnc23)c1=O [Compound 19]	96	0%	0	0							
Cn1ncc(O)c(C(=O)Nc2c(F)cccc2F)c1=O [Compound 20]	0	0%	0	0							
Cn1ncc(O)c(C(=O)NCc2ccc(Cl)cc2)c1=O [Compound 22]											Test F disease control rating ([1]; 40 ppm): 41%; Test D disease control rating (Phytophthora infestans; 40 ppm): 0%; Test G disease control rating ([2]; 40 ppm): 0%; Test C disease control rating (Botrytis cinerea; 40 ppm): 0%

SMILES	Test F disease control rating ([1]; 200 ppm) [%]	Test D disease control rating (Phytophthora infestans; 200 ppm)	Test G disease control rating ([2]; 200 ppm) [%]	Test C disease control rating (Botrytis cinerea; 200 ppm) [%]	Test A disease control rating (Phakopsora pachyrhizi) [%]	Test F disease control rating [1, 3] [%]	Test D disease control rating (Phytophthora infestans; [3]) [%]	Test G disease control rating [2, 3] [%]	Test C disease control rating (Botrytis cinerea; [3]) [%]	Test E disease control rating (Zymoseptoria tritici; [3]) [%]	further results
CN(C(=O)c1c(O)cnn(C)c1=O)c1ccc(Cl)cc1 [Compound 23]											Test F disease control rating ([1]; 40 ppm): 0%; Test D disease control rating (Phytophthora infestans; 40 ppm): 0%; Test G disease control rating ([2]; 40 ppm): 0%; Test C disease control rating (Botrytis cinerea; 40 ppm): 0%
Cn1ncc(O)c(C(=O)Nc2ccc(Cl)cc2C#N)c1=O [Compound 24]	91	0%	0	99							
Cn1ncc(O)c(C(=O)Nc2cccc(F)c2)c1=O [Compound 25]	89	0* %	0	0							
Cn1ncc(O)c(C(=O)Nc2ccccc2-c2cc(F)c(F)c(F)c2)c1=O [Compound 27]					0	98	0	0	0	0	
Cn1ncc(O)c(C(=O)Nc2ccccc2-c2ccc(Cl)cc2)c1=O [Compound 28]					0	97	0	27	0	0	
COc1ccc(NC(=O)c2c(Cl)cnn(C)c2=O)cc1 [Compound 30]					60	96	0	0	0	0	
Cc1ccc(NC(=O)c2c(Cl)cnn(C)c2=O)cc1 [Compound 31]					65	95	0	0	92	0	
Cn1ncc(Cl)c(C(=O)Nc2ccccc2-c2ccc(F)c(F)c2F)c1=O [Compound 32]					94	96	0	0	0	0	
Cn1ncc(Cl)c(C(=O)Nc2ccccc2-c2ccc(Cl)cc2)c1=O [Compound 33]					48	97	0	0	0	0	
COc1ccccc1NC(=O)c1c(O)cnn(C)c1=O [Compound 34]					0	80	0	0	0	0	
Cn1ncc(O)c(C(=O)Nc2ccccc2Br)c1=O [Compound 35]					0	98	71	0	0	0	
Cn1ncc(O)c(C(=O)Nc2ccccc2F)c1=O [Compound 36]					31	98	94	78	0	0	
Cn1ncc(O)c(C(=O)Nc2ccc(OC(F)(F)F)cc2F)c1=O [Compound 48]						99	97	97	62	96	
Cn1ncc(OS(C)(=O)=O)c(C(=O)Nc2ccc(C(F)(F)F)nc2)c1=O [Compound 94]					77	99	0	52	0		
Cn1ncc(OS(C)(=O)=O)c(C(=O)Nc2ncc(Cl)cn2)c1=O [Compound 95]					73	68	0	0	0		
Cn1ncc(OS(=O)(=O)c2ccccc2)c(C(=O)Nc2ccc(OC(F)(F)F)cc2)c1=O [Compound 107]						100	96	98	0	71	

From patent US20190133128A1, “Fungicidal pyridazinones” (FMC Corporation, priority 2017, published 2019)
